# Results: patent publication US20110098177A1, “METHODS AND COMPOSITIONS OF PLANT MICRONUTRIENTS” (NOVUS INTERNATIONAL INC., priority 2006, published 2011)
# What was measured:
# Type in all cases: in vivo
# Tygress tomato plants [1] = assay: Yields of tomato fruits, greenhouse (Examples 4-6); settings: for Marketable yield: tomato fruits
# In short: (§1)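 Tygress tomato in 2-gallon pots of micronutrient-poor medium (negligible Fe, Zn, Mn, Cu) in greenhouse; foliar treatments at 5 WAT in 200 mL/plant water with non-ionic surfactant. Newest non-applied leaves analysed 2 weeks before and after treatment; marketable fruit harvested three times from 10 WAT, graded. RCBD, 6 replications, LSD 5%.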
# Tygress tomato plants [2] = assay: Foliar nutrient concentration 2 weeks after treatment, greenhouse tomato (Examples 4-6); settings: for Foliar Mn concentration: tomato leaves 2 weeks after Mn treatment; for Foliar Zn concentration: tomato leaves 2 weeks after Zn treatment
# In short: as §1
# [3] = tested on: Patriot bell pepper plants; assay: Marketable yield, open-field bell pepper (Examples 7-10); settings: open field; lb/acre/season: BIOX-Z 1.3, Cu 6.7, M 23.0, Fe 3.2, INC 4.0, INZ 0.6, CM 10.0, GZ 1.0, GF 4.0, EDZ 1.4, EDM 23.0
# In short: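 Open-field Florida trial, spring 2008: transplants at 4-true-leaf stage on drip-irrigated raised beds were foliar-sprayed at 3 and 5 WAT (BIOX-CM at 4 and 5 WAT) at 60 gal/acre with non-ionic surfactant. Most recent mature leaves were sampled at 6 WAT. Tomato fruit was USDA-graded and analysed for minerals.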
# Tygress tomato plants [4] = assay: Foliar nutrient concentration at 7 WAT, greenhouse tomato spring 2009 (Examples 13-15); settings: tomato leaves 1 week after treatment
# In short: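 Greenhouse 'Tygress' tomatoes in micronutrient-deficient medium received foliar treatments at 6 WAT (200 mL/plant, deionized water plus non-ionic surfactant). Newest non-applied leaves sampled at 7 WAT and analysed for N, P, K, Mg, Ca, B, Zn, Mn, Fe and Cu. Randomized complete block design with 6 replications; means separated by LSD at 5%.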
# [5] = Mn 0.31 lb/acre, 2 weeks after Mn treatment
# [6] = Mn 0.62 lb/acre, 2 weeks after Mn treatment
# [7] = Mn 1.23 lb/acre, 2 weeks after Mn treatment
# [8] = Mn 2.46 lb/acre, 2 weeks after Mn treatment
# [9] = Zn 0.1 lb/acre, 2 weeks after Zn treatment
# [10] = Zn 0.2 lb/acre, 2 weeks after Zn treatment
# [11] = Zn 0.4 lb/acre, 2 weeks after Zn treatment
# [12] = Zn 0.8 lb/acre, 2 weeks after Zn treatment
molecule,measurement,setting,value
"CSCCC(O)C(=O)[O-].CSCCC(O)C(=O)[O-].[Mn+2] (centres unmarked) [BIOX-M, Mn-HMTBA]",Marketable tomato yield compared with non-treated control (in words),"Tygress tomato plants [1]; BIOX-M at 1.23 lb/acre or more, BIOX-EDM at 2.0 lb/acre, Mn-sulfate at 1.0 lb/acre",significantly higher than the non-treated control
same,Marketable yield,Tygress tomato plants [1]; Mn 0.31 lb/acre,2.2 b lb/plant
same,Marketable yield,Tygress tomato plants [1]; Mn 0.62 lb/acre,2.1 b lb/plant
same,Marketable yield,Tygress tomato plants [1]; Mn 1.23 lb/acre,4.2 a lb/plant
same,Marketable yield,Tygress tomato plants [1]; Mn 2.46 lb/acre,4.3 a lb/plant
same,B concentration in tomato leaves,Tygress tomato plants [2]; [5],22 ppm
same,Ca concentration in tomato leaves,Tygress tomato plants [2]; [5],0.6%
same,Cu concentration in tomato leaves,Tygress tomato plants [2]; [5],5 ppm
same,Fe concentration in tomato leaves,Tygress tomato plants [2]; [5],109 ppm
same,K concentration in tomato leaves,Tygress tomato plants [2]; [5],3.1%
same,Mg concentration in tomato leaves,Tygress tomato plants [2]; [5],0.3%
same,N concentration in tomato leaves,Tygress tomato plants [2]; [5],3.5%
same,P concentration in tomato leaves,Tygress tomato plants [2]; [5],0.4%
same,Zn concentration in tomato leaves,Tygress tomato plants [2]; [5],31 ppm
same,Foliar Mn concentration,Tygress tomato plants [2]; Mn 0.31 lb/acre,22.9 b ppm
same,B concentration in tomato leaves,Tygress tomato plants [2]; [6],24 ppm
same,Ca concentration in tomato leaves,Tygress tomato plants [2]; [6],0.6%
same,Cu concentration in tomato leaves,Tygress tomato plants [2]; [6],5 ppm
same,Fe concentration in tomato leaves,Tygress tomato plants [2]; [6],110 ppm
same,K concentration in tomato leaves,Tygress tomato plants [2]; [6],3.2%
same,Mg concentration in tomato leaves,Tygress tomato plants [2]; [6],0.3%
same,N concentration in tomato leaves,Tygress tomato plants [2]; [6],3.5%
same,P concentration in tomato leaves,Tygress tomato plants [2]; [6],0.5%
same,Zn concentration in tomato leaves,Tygress tomato plants [2]; [6],32 ppm
same,Foliar Mn concentration,Tygress tomato plants [2]; Mn 0.62 lb/acre,29.5 b ppm
same,B concentration in tomato leaves,Tygress tomato plants [2]; [7],25 ppm
same,Ca concentration in tomato leaves,Tygress tomato plants [2]; [7],0.6%
same,Cu concentration in tomato leaves,Tygress tomato plants [2]; [7],5 ppm
same,Fe concentration in tomato leaves,Tygress tomato plants [2]; [7],112 ppm
same,K concentration in tomato leaves,Tygress tomato plants [2]; [7],3.1%
same,Mg concentration in tomato leaves,Tygress tomato plants [2]; [7],0.3%
same,N concentration in tomato leaves,Tygress tomato plants [2]; [7],3.5%
same,P concentration in tomato leaves,Tygress tomato plants [2]; [7],0.5%
same,Zn concentration in tomato leaves,Tygress tomato plants [2]; [7],28 ppm
same,Foliar Mn concentration,Tygress tomato plants [2]; Mn 1.23 lb/acre,60.6 a ppm
same,B concentration in tomato leaves,Tygress tomato plants [2]; [8],23 ppm
same,Ca concentration in tomato leaves,Tygress tomato plants [2]; [8],0.6%
same,Cu concentration in tomato leaves,Tygress tomato plants [2]; [8],5 ppm
same,Fe concentration in tomato leaves,Tygress tomato plants [2]; [8],114 ppm
same,K concentration in tomato leaves,Tygress tomato plants [2]; [8],3.2%
same,Mg concentration in tomato leaves,Tygress tomato plants [2]; [8],0.3%
same,N concentration in tomato leaves,Tygress tomato plants [2]; [8],3.6%
same,P concentration in tomato leaves,Tygress tomato plants [2]; [8],0.4%
same,Zn concentration in tomato leaves,Tygress tomato plants [2]; [8],33 ppm
same,Foliar Mn concentration,Tygress tomato plants [2]; Mn 2.46 lb/acre,69.2 a ppm
same,"Marketable yield, Bell Pepper",[3],6.3 ton/acre
"CSCCC(O)C(=O)[O-].CSCCC(O)C(=O)[O-].[Zn+2] (centres unmarked) [BIOX-Z, Zn-HMTBA]",Marketable yields compared with the other Zn formulations (in words),Tygress tomato plants [1]; BIOX-Z at a concentration higher than 0.1 lb/acre,statistically similar to the other Zn supplementation treatment formulations
same,Marketable yield,Tygress tomato plants [1]; Zn 0.1 lb/acre,2.3 b lb/plant
same,Marketable yield,Tygress tomato plants [1]; Zn 0.2 lb/acre,3.7 a lb/plant
same,Marketable yield,Tygress tomato plants [1]; Zn 0.4 lb/acre,3.9 a lb/plant
same,Marketable yield,Tygress tomato plants [1]; Zn 0.8 lb/acre,3.8 a lb/plant
same,Foliar Zn concentration compared with control (in words),"Tygress tomato plants [2]; 0.8 lb/acre, 2 weeks after application",significantly higher than control
same,B concentration in tomato leaves,Tygress tomato plants [2]; [9],25 ppm
same,Ca concentration in tomato leaves,Tygress tomato plants [2]; [9],0.6%
same,Cu concentration in tomato leaves,Tygress tomato plants [2]; [9],8 ppm
same,Fe concentration in tomato leaves,Tygress tomato plants [2]; [9],98 ppm
same,K concentration in tomato leaves,Tygress tomato plants [2]; [9],3.5%
same,Mg concentration in tomato leaves,Tygress tomato plants [2]; [9],0.3%
same,Mn concentration in tomato leaves,Tygress tomato plants [2]; [9],55 ppm
same,N concentration in tomato leaves,Tygress tomato plants [2]; [9],3.6%
same,P concentration in tomato leaves,Tygress tomato plants [2]; [9],0.5%
same,Foliar Zn concentration,Tygress tomato plants [2]; Zn 0.1 lb/acre,86 bc ppm
same,B concentration in tomato leaves,Tygress tomato plants [2]; [10],27 ppm
same,Ca concentration in tomato leaves,Tygress tomato plants [2]; [10],0.6%
same,Cu concentration in tomato leaves,Tygress tomato plants [2]; [10],6 ppm
same,Fe concentration in tomato leaves,Tygress tomato plants [2]; [10],88 ppm
same,K concentration in tomato leaves,Tygress tomato plants [2]; [10],3.7%
same,Mg concentration in tomato leaves,Tygress tomato plants [2]; [10],0.3%
same,Mn concentration in tomato leaves,Tygress tomato plants [2]; [10],56 ppm
same,N concentration in tomato leaves,Tygress tomato plants [2]; [10],3.3%
same,P concentration in tomato leaves,Tygress tomato plants [2]; [10],0.5%
same,Foliar Zn concentration,Tygress tomato plants [2]; Zn 0.2 lb/acre,112 bc ppm
same,B concentration in tomato leaves,Tygress tomato plants [2]; [11],28 ppm
same,Ca concentration in tomato leaves,Tygress tomato plants [2]; [11],0.6%
same,Cu concentration in tomato leaves,Tygress tomato plants [2]; [11],6 ppm
same,Fe concentration in tomato leaves,Tygress tomato plants [2]; [11],88 ppm
same,K concentration in tomato leaves,Tygress tomato plants [2]; [11],3.5%
same,Mg concentration in tomato leaves,Tygress tomato plants [2]; [11],0.3%
same,Mn concentration in tomato leaves,Tygress tomato plants [2]; [11],59 ppm
same,N concentration in tomato leaves,Tygress tomato plants [2]; [11],3.4%
same,P concentration in tomato leaves,Tygress tomato plants [2]; [11],0.5%
same,Foliar Zn concentration,Tygress tomato plants [2]; Zn 0.4 lb/acre,128 bc ppm
same,B concentration in tomato leaves,Tygress tomato plants [2]; [12],25 ppm
same,Ca concentration in tomato leaves,Tygress tomato plants [2]; [12],0.5%
same,Cu concentration in tomato leaves,Tygress tomato plants [2]; [12],4 ppm
same,Fe concentration in tomato leaves,Tygress tomato plants [2]; [12],93 ppm
same,K concentration in tomato leaves,Tygress tomato plants [2]; [12],3.4%
same,Mg concentration in tomato leaves,Tygress tomato plants [2]; [12],0.3%
same,Mn concentration in tomato leaves,Tygress tomato plants [2]; [12],54 ppm
same,N concentration in tomato leaves,Tygress tomato plants [2]; [12],3.5%
same,P concentration in tomato leaves,Tygress tomato plants [2]; [12],0.5%
same,Foliar Zn concentration,Tygress tomato plants [2]; Zn 0.8 lb/acre,500 ab ppm
same,"Marketable yield, Bell Pepper",[3],8.4 ton/acre
"CSCCC(O)C(=O)[O-].CSCCC(O)C(=O)[O-].[Cu+2] (centres unmarked) [BIOX-Cu, Cu-HMTBA]",Foliar Cu concentration,Tygress tomato plants [4]; Cu 0.14 lb/acre,72 ppm
same,Foliar Cu concentration,Tygress tomato plants [4]; Cu 0.28 lb/acre,91 ppm
same,Foliar Cu concentration,Tygress tomato plants [4]; Cu 0.46 lb/acre,208 ppm
same,Foliar Cu concentration,Tygress tomato plants [4]; Cu 0.55 lb/acre,397 ppm
same,"Marketable yield, Bell Pepper",[3],7.8 ton/acre
Fe-HMTBA [BIOX-Fe],Foliar Fe concentration,Tygress tomato plants [4]; Fe 0.28 lb/acre,249 ppm
same,Foliar Fe concentration,Tygress tomato plants [4]; Fe 0.57 lb/acre,388 ppm
same,Foliar Fe concentration,Tygress tomato plants [4]; Fe 1.12 lb/acre,517 ppm
same,Foliar Fe concentration,Tygress tomato plants [4]; Fe 1.74 lb/acre,453 ppm
same,Foliar Fe concentration,Tygress tomato plants [4]; Fe 2.3 lb/acre,383 ppm
same,"Marketable yield, Bell Pepper",[3],7.2 ton/acre
EDTA chelated zinc [BIOX-EDZ],Marketable yield,Tygress tomato plants [1]; Zn 0.4 lb/acre,3.5 a lb/plant
same,B concentration in tomato leaves,Tygress tomato plants [2]; [11],21 ppm
same,Ca concentration in tomato leaves,Tygress tomato plants [2]; [11],0.6%
same,Cu concentration in tomato leaves,Tygress tomato plants [2]; [11],7 ppm
same,Fe concentration in tomato leaves,Tygress tomato plants [2]; [11],95 ppm
same,K concentration in tomato leaves,Tygress tomato plants [2]; [11],3.6%
same,Mg concentration in tomato leaves,Tygress tomato plants [2]; [11],0.3%
same,Mn concentration in tomato leaves,Tygress tomato plants [2]; [11],54 ppm
same,N concentration in tomato leaves,Tygress tomato plants [2]; [11],3.6%
same,P concentration in tomato leaves,Tygress tomato plants [2]; [11],0.5%
same,Foliar Zn concentration,Tygress tomato plants [2]; Zn 0.4 lb/acre,214.bc ppm
same,"Marketable yield, Bell Pepper",[3],8.1 ton/acre
